Results as given in US9944660B2, “Tricyclic benzoxaboroles as antibacterial agents” (Daiichi Sankyo Company, Limited, priority 2014, dated 2018).

How the values were obtained:
E. coli ATCC 25922 = test: Bacterial susceptibility testing (MIC, CLSI microdilution); type: cell-based; conditions: Escherichia coli, ATCC25922
Method: (§1) (Test Example 2) Method of Testing Susceptibility of Bacterial [MICs]
(§2) Minimum inhibitory concentration (MIC) were determined as recommended by the Clinical and Laboratory Standards Institute (CLSI) in 2010 (M100-520), in 2011 (M100-521), 2012 (M100-522) and in 2013 (M100-523) with minor modifications.
(§3) In short, bacterial cultures were streaked on Muller Hinton Agar plates and incubated at 35±2° C. for about 18 to 20 hours. Following day colony suspension was prepared in saline and adjusted to 0.5 McFarland using Densitometer. This culture was further diluted 100 fold in Muller Hinton Broth or M9 minimal media or pooled human urine and used for MIC determination. The test compounds were prepared in dimthylesulfoxide (DMSO) at concentration of 1 mg/mL, and diluted to 32 μg/mL in respective media. Further two fold serial dilution were prepared in 96 well microtiter plates. 50 μL of diluted cultures were added to all wells and incubated at 35±2° C. for about 16 to 20 hours.

K. pneumoniae ATCC 13883 = test: as above; type: cell-based; conditions: Klebsiella pneumoniae, ATCC13883
Method: as §1, §2, §3

P. aeruginosa = test: as above; type: cell-based; conditions: Pseudomonas aeruginosa, strain not stated, read-out: MIC against P. aeruginosa
Method: as §1, §2, §3

P. aeruginosa PAO-1 = test: In vivo efficacy in P. aeruginosa PAO1 murine lung infection model; conditions: subcutaneous 75 mg/kg twice daily
Method: (Test Example 3c) In Vivo Efficacy in P. aeruginosa PAO1 Murine Lung Infection Model Overnight grown culture of P. aeruginosa PAO-1 on TSA agar was inoculated in Brain heart infusion broth (BHI, DIFCO) and grown in a shaker incubator with shaking at 110 rpm at 35±2° C. overnight. The culture was subcultured in 50 mL of BHI and incubated again at 110 rpm at 35±2° C. on a shaker incubator till the optical density of the culture reaches 0.5-0.7 units. For infection, animals were weighed, randomized and anesthetized by giving isofluorane. Under anesthesia the animals were infected with 50 μL of the inoculum prepared as above by intranasal route. The test compounds were administered at 75 mg/kg body weight by subcutaneous route after 1 hour and 6 hours post infection. Animals were euthanized, lungs were removed aseptically and homogenized in PBS (3 mL) and serial dilutions plated on TSA plates 24 hours post infection.

[1] = Oral bioavailability (BA) in rats; type: in vivo; conditions: male, rat, plasma, 8.5 mg/kg body weight; Sprague Dawley Rats, 8.5 mg/kg oral, 4.25 mg/kg intravenous; read-out: oral absolute bioavailability
Method: (Test Example 8a) Oral Bioavailability (BA) in Rats
To Male Sprague Dawley Rats (215±10 g) test compound was administered as 2.0 mg/mL solution in milli-Q water (pH 5.0) by intravenous and oral route. The final dose was 4.25 mg/kg body weight (intravenous) or 8.5 mg/kg body weight (oral). Plasma samples analyzed for test compound using LC-MS/MS method. Estimation of pharmacokinetic parameters was done by using moment analysis. WinNonlin software 6.1 (Pharsight) was utilized for the estimation of PK parameters and oral bioavailability.

[2] = Oral bioavailability (BA) in mouse; type: in vivo; conditions: female, plasma, 8.5 mg/kg body weight, Swiss mice, 8.5 mg/kg oral, 4.25 mg/kg intravenous, read-out: oral absolute bioavailability
Method: (Test Example 8b) Oral Bioavailability (BA) in Mouse
To Female Swiss mouse (23±3 g) test compound was administered as 0.5 mg/mL intravenous and 1 mg/mL oral solution in milli-Q water (pH 5.0). The final dose was 4.25 mg/kg body weight (intravenous) and 8.5 mg/kg body weight (oral route). Plasma samples analyzed for test compound using LC-MS/MS method. Estimation of pharmacokinetic parameters was done by using moment analysis. WinNonlin software 6.1 (Pharsight) was utilized for the estimation of PK parameters and oral bioavailability.

Cl.NC[C@H]1OB(O)c2ccc3c(c21)OCO3 (single isomer, unassigned) [Compound 6]
MIC (E. coli ATCC 25922): 1 µg/mL
MIC (K. pneumoniae ATCC 13883): 1 µg/mL
MIC (P. aeruginosa): 2 µg/mL
log reduction in cfu from 24 hours untreated control (P. aeruginosa PAO-1): 4.04 log
log reduction in cfu's from baseline (P. aeruginosa PAO-1): 2.58 log
bioavailability [1]: 72%
bioavailability [2]: 62%
